Results: US6403788B1, “Non-genotoxic metalloporphyrins as synthetic catalytic scavengers of reactive oxygen species” (Eukarion, Inc., priority 2000, dated 2002)

Assays:
[1] = test system: ΦX 174 DNA Plasmid (Form I); assay: Cleavage of ΦX 174 DNA plasmid (form I), compound alone or activated with KHSO5; format: biochemical, phage ΦX 174; details: for S (single-strand breaks per DNA molecule) / form % I / form % II / form % III: DNA 3.5 nM, compound 10 nM
Description: The DNA cleavage activity was quantified in terms of number of single-strand breaks per DNA molecule according to the equation […], Io=% form I (supercoiled DNA) in the DNA control, and I=% form I in the experiment (see Bernadou et al, Biochemistry, 28: 7268-7275, (1989)). This assay is very sensitive and is able to detect very low levels of DNA activity. S values less than S=1.0 are indicative of very low DNA cleavage activity when the compounds are at a concentration of equal to or less than 1000 nM and KHSO5 is present at a concentration of equal to or less than 100 μM.
ΦX 174 DNA digestion conditions for standard experiments were as follows: commercially available DNA was diluted to 50 μg/mL in phosphate buffer (10 mM, pH 7.5). The reaction involved 5 μL of ΦX 174 DNA (50 μg/mL, 74.8 μM in base pairs), 5 μL of 40 mM phosphate buffer, pH 7.5 with 400 mM NaCl, 5 μL of metalloporphyrin in double-distilled water or 5 μL of iron-bleomycin complex in double-distilled water, and 5 μL of KHSO5 or 5 μL of H2O2 or 5 μL of ascorbate in double-distilled water. Preincubation of DNA and metalloporphyrins or iron-bleomycin complex was performed for about 15 min. The digestion time in the presence of KHSO5 was 10 min, of H2O2 was 30 min and of ascorbate was 30 min at 20° C. DNA cleavage was monitored by agarose gel electrophoresis. Reactions with KHSO5 were first quenched by 2 μL of 100 mM Hepes buffer, pH 8. In all cases, reactions were quenched by 5 μL of a stopping reagent. The stopping reagent consisted of 250 mM Hepes buffer, pH 7.4, containing 75% glycerol and 0.05% bromophenol blue. Reaction mixtures were then run in 0.8% agarose slab horizontal gel containing ethidium bromide […], at constant current (25 mA for 15h), in 89 mM Tris-borate buffer and 2.5 mM EDTA pH 8.3. Bands were located by WV light (254 nm), photographed, and quantitated by microdensitometry. The correction coefficient 1.47±0.30 was used for decreased stainability of form I DNA vs form II DNA and form III DNA.

[2] = Catalase activity, hydrogen peroxide consumed at 20 minutes; format: biochemical; details: over 20 minutes; 10 μM compound, 100 μM hydrogen peroxide, 40 mM sodium phosphate pH 7.4
Protocol: (§1) Catalase activity was measured by incubating the sample compound with hydrogen peroxide and determining the amount of hydrogen peroxide remaining after a period of time using a colorimetric peroxidase-coupled assay method. 10 μM sample compound and 100 μM hydrogen peroxide in 40 mM sodium phosphate pH 7.4 were incubated together at ambient temperature in a multi-well plate. After the desired reaction period had elapsed, 20 μl of peroxidase/ABTS reagent was added (peroxidase/ABTS reagent contained 100 μl of 50 mM Na phosphate, pH 7.4, 1 mg horseradish peroxidase (1310 U/mg) and […]). After five minutes, absorbance at 750 nm was determined. The amount of hydrogen peroxide remaining was calculated based on a standard curve. To compare rates of catalase reaction, the amount of hydrogen peroxide consumed at 20 minutes was determined (See table III). It was also of interest to determine the total number of turnovers completed by the compound before inactivation by hydrogen peroxide. This was assayed under similar conditions, except that 15.8 μM compound was combined with 1582 μM hydrogen peroxide in 5 mM Na phosphate, pH 7.4. Reactions were allowed to proceed to completion and then the amount of hydrogen peroxide remaining was determined as described above. Results showing […] in the turnover assay (nmoles hydrogen peroxide per nmole compound) are also shown in Table III.

[3] = Catalase turnover assay, total hydrogen peroxide consumed before inactivation; format: biochemical; details: to completion, 15.8 μM compound, 1582 μM hydrogen peroxide, 5 mM Na phosphate pH 7.4
Protocol: as §1

[4] = Peroxidase activity, ABTS oxidation; format: biochemical; details: 10 μM compound, 200 μM hydrogen peroxide, 500 μM ABTS, pH 8.1, 740 nm
Protocol: Peroxidase activity was measured by incubating 10 μM compound, 200 μM hydrogen peroxide and 500 μM ABTS in 50 mM sodium phosphate, pH 8.1. The rate of ABTS oxidation was monitored at 740 nm and initial rates (change in absorbance per min.) determined.

[5] = Superoxide dismutase activity, xanthine-xanthine oxidase / cytochrome C; format: biochemical; details: reciprocal of IC50; xanthine 60 μM, xanthine oxidase 0.009 units/ml, cytochrome C 27.8 μM
Protocol: Superoxide Dismutase Activity was measured by incubating the compound with a superoxide generating system (Xanthine, 60 μM-Xanthine Oxidase, 0.009 units/ml) and a detector molecule (Cytochrome C, 27.8 μM). Upon reacting with a molecule of superoxide, Cytochrome C undergoes a spectrum-shift which can be detected as an increase in absorbance at 550 nm. In this assay procedure, the reactant concentrations were adjusted to give a reaction rate close to 0.1 AU/min. at 2-3 min. after the reaction began. Addition of compounds with Superoxide Dismutase activity reduce the rate of absorbance change. Compounds were assayed at several concentrations (typically at 0, 2, 4, and 8 μM) and the resulting rates were graphed and fitted to a linear regression formula. The linear regression formula was then solved to determine the concentration of compound required to reduce the reaction rate to 50% of the rate without compound present (IC50).

[6] = test system: ΦX 174 DNA Plasmid (Form I); details: literature (Bernadou 1989, Vialas 2000, Meunier 1992); cited from earlier work
[7] = test system: CBA/J female mice, oxazolone-induced inflammatory ear edema; assay: Delayed type hypersensitivity: oxazolone-induced ear edema; format: in vivo
Description: CBA/J female mice (Jackson Labs, Bar Harbor, ME) 7 weeks of age were pre-sensitized with 3% oxazolone (Sigma Chemical Co., St. Louis, Mo.) in 99.9% acetone, on the abdomen. After 8 days, the mice were challenged with 1.2% oxazolone topically on one ear to induce an inflammatory edema. Either Structural Formula V, Structural Formula IV at a dose of 7 nmoles/ear each, or ethanol, i.e. vehicle control (eight mice per study group), was applied topically to the ear immediately after the oxazolone challenge. Ear edema was measured by comparing the tissue water content (the wet weight minus the dry weight) of the challenged ear to that of the control ear. The percent edema (% water in the right ear-left ear) in the vehicle control was 6.5% and 2.1% and 3.9% for Structural Formula V and Structural Formula IV, respectively at a dose of 7 nmoles/ear.

Row | Structure (SMILES) | S (single-strand breaks per DNA molecule) ([1]; KHSO5 10 μM) [SSBs] | form % I ([1]; KHSO5 10 μM) [%] | form % II ([1]; KHSO5 10 μM) [%] | form % III ([1]; KHSO5 10 μM) [%] | S (single-strand breaks per DNA molecule) ([1]; without KHSO5) [SSBs] | form % I ([1]; without KHSO5) [%] | form % II ([1]; without KHSO5) [%] | form % III ([1]; without KHSO5) [%] | times more active in DNA cleavage than Structural Formula V ([1]; same concentration (10 nM), with KHSO5, from experiments 6, 9 and 10) [times] | CATALASE* Rate at 20 mins. [2] | CATALASE** H2O2 Consumption [3] | PEROXIDASE Initial Rate [4] | Cyt C SOD 1/(IC50, μM) [5] [µM⁻¹] | oxidative DNA cleavage (literature statement) [6] | effect on edema compared to vehicle ([7]; 7 nmoles/ear topically) | percent edema (% water in the right ear-left ear) ([7]; 7 nmoles/ear topically immediately after oxazolone challenge, vehicle control 6.5%) [%]
1 | C[n+]1ccc(-c2c3nc(c(-c4cc[n+](C)cc4)c4ccc([n-]4)c(-c4cc[n+](C)cc4)c4nc(c(-c5cc[n+](C)cc5)c5ccc2[n-]5)C=C4)C=C3)cc1.[Mn+3] [MnTMPyP, 5, 10, 15, 20 meso-tetrakis(4-methylpyridiniumyl)porphyrinato-manganese (III), reference compound] | 15.3 | 1 | 86 | 13 | 0.03 | 90 | 10 | 0 | 1527 | 3.4 nmole H2O2/nmole Structural Formula compound | 31.1 nmole H2O2/nmole Structural Formula compound | 0.0672 change in absorbance per min. | 0.143 | able to generate DNA damage at nanomolar concentrations | – | –
2 | CC[NH+](CC)CCNS(=O)(=O)c1c(C)cc(C)c(C2=C3C=CC4=[N+]3[Mn-]35[n]6c2ccc6C(c2c(C)cc(C)c(S(=O)(=O)NCC[NH+](CC)CC)c2C)=C2C=CC(=[N+]23)C(c2c(C)cc(C)c(S(=O)(=O)NCC[NH+](CC)CC)c2C)=c2ccc([n]25)=C4c2c(C)cc(C)c(S(=O)(=O)NCC[NH+](CC)CC)c2C)c1C.[Cl-].[Cl-].[Cl-].[Cl-].[Cl-] [Structural Formula IV, meso-tetrakis[3-(N-(2-(N,N-diethylammonio)ethyl)aminosulfonyl)-2,4,6-trimethylphenyl]porphyrinato diaqua-manganese (III) pentachloride] | – | – | – | – | – | – | – | – | – | 1.0 nmole H2O2/nmole Structural Formula compound | 189.9 nmole H2O2/nmole Structural Formula compound | 0.021 change in absorbance per min. | 0.043 | – | effective in reducing the percentage of edema | 3.9
